In brackets after ≈: the same amount, converted by molar mass. Where two headings read alike, the source gives them in different places.
Tests used:
[1] = tested on: S. aureus RN4220 pRMC2:vanZTei; test: MIC, broth microdilution, strain expressing vanZTei; type: cell-based, Staphylococcus aureus; conditions: for MIC: S. aureus RN4220 vanZTei, broth microdilution, ISO 20776-1, 25 μg/ml chloramphenicol and 100 ng/ml AnhTet, twice in triplicate; for decrease of susceptibility of S. aureus by expression of vanZTei: MIC of RN4220 vanZTei versus RN4220 pRMC2
Source text: (§1) The vanZTei and vanZg genes and their ribosome binding sites were amplified from the plasmid pAT398 ([Arthur et al., 1995]) and E. faecium Aus0004 chromosomal DNA, respectively, using the primers TecVanZ_SacI_F, TecVanZ_R, gVanZ_SacI_F, and gVanZ_R (Supplementary Table S1). The PCR products were cloned into the pRMC2 shuttle vector under the control of the anhydrotetracycline (AnhTet)-inducible promoter Pxyl/tetO using SacI and EcoRI restriction sites, resulting in the constructs pRMC2:vanZTei and pRMC2:vanZg. The constructs were confirmed by sequencing and then electroporated into S. aureus RN4220. Using the same procedure, we prepared the constructs pRMC2:vanZTei-His and pRMC2:vanZg-His encoding C-terminal His-tagged VanZ variants. However, primers TecVanZhis_R and gVanZhis_R replaced the reverse primers TecVanZ_R and gVanZ_R.
(§2) Minimal Inhibitory Concentrations were measured by the broth microdilution method according to ISO standard 20776-1 (EUCAST 2019). S. aureus strains with pRMC2, pRMC2:vanZTei and pRMC2:vanZg plasmids were cultured in the presence of 25 μg/ml chloramphenicol and 100 ng/ml AnhTet (Sigma-Aldrich, Germany) to induce vanZ gene expression. All measurements were performed twice in triplicate. S. aureus ATCC29213 was used as a control. MIC values of clinically accepted glycopeptide antibiotics were interpreted according to EUCAST clinical breakpoints (EUCAST, 2019).

S. aureus RN4220 pRMC2 = test: MIC, broth microdilution, empty vector strain; type: cell-based, Staphylococcus aureus; conditions: ISO 20776-1, 25 μg/ml chloramphenicol and 100 ng/ml AnhTet, twice in triplicate
Source text: as §1, §2

[2] = tested on: S. aureus RN4220 pRMC2:vanZg; test: MIC, broth microdilution, strain expressing vanZg; type: cell-based, Staphylococcus aureus; conditions: for MIC: S. aureus RN4220 vanZg, broth microdilution, ISO 20776-1, 25 μg/ml chloramphenicol and 100 ng/ml AnhTet, twice in triplicate; for decrease of susceptibility of S. aureus by expression of vanZg: MIC of RN4220 vanZg versus RN4220 pRMC2
Source text: as §1, §2

[3] = tested on: S. pneumoniae R6 ΔvanZ:vanZ; test: MIC, broth microdilution, vanZ-reverted strain; type: cell-based, Streptococcus pneumoniae
Source text: (§3) Strain Sp539 (ΔvanZ) was constructed using a Sweet Janus cassette-based two-step negative selection strategy ([Sung et al., 2001]; [Li et al., 2014]). The Sweet Janus cassette contains the kanamycin resistance gene, the recessive rpsL gene and the sacB gene, which confers sucrose sensitivity (Su^S), as counterselectable markers. In the first step, 1000 bp fragments corresponding to the upstream and downstream flanking regions of the vanZ gene (spr0050) were amplified from the wild-type chromosomal DNA with the primer pairs KB60/KB61 and KB62/KB63, respectively. The Sweet Janus cassette (2807 bp) amplified from the Sweet Janus cassette DNA fragment with the primers DP1/DP2 was attached to the regions flanking vanZ by fusion PCR using primers KB60 and KB63. The resulting PCR fragment was used for the transformation of the S. pneumoniae R6 strain, and Kan^R/Su^S transformants (Sp537, vanZ:kan sacB) were selected. The PCR fragments consisting of the upstream and downstream flanking regions of the vanZ gene were amplified by the KB60/KB65 and KB64/KB63 primer pairs, respectively, and fused by overlap extension using primers KB60/KB63. The resulting fragment was transformed into the Sp537 strain to obtain Sp539 (Su^R/Kan^S). To complement the vanZ deletion, we constructed strain Sp635 (Su^R/Kan^S; ΔvanZ:vanZ) by transforming strain Sp537 (Kan^R/Su^S) with the PCR fragment amplified with the primers KB60 and KB63 that contained wild-type loci using R6 chromosomal DNA as a template.
as §2

S. pneumoniae R6 ΔvanZ = test: MIC, broth microdilution, vanZ knockout; type: cell-based, Streptococcus pneumoniae
Source text: as §3, §2

S. aureus ATCC29213 = test: MIC, broth microdilution, control strain; type: cell-based, Staphylococcus aureus; conditions: ISO 20776-1 (EUCAST 2019), performed twice in triplicate
Experimental: as §2

S. pneumoniae R6 = test: MIC, broth microdilution, wild type; type: cell-based, Streptococcus pneumoniae; conditions: ISO 20776-1, twice in triplicate
Experimental: as §2

[4] = Staphylococcus aureus, read-out: MIC
[5] = Staphylococcus aureus, RN4220PRMC2, S. aureus RN4220 pRMC2 (no VanZ), read-out: MIC
[6] = Staphylococcus aureus, ATCC29213, S. aureus ATCC 29213 (control), read-out: MIC
[7] = Streptococcus pneumoniae, read-out: MIC
[8] = S. pneumoniae R6 ΔvanZ:vanZ (complemented), broth microdilution, ISO 20776-1, twice in triplicate
[9] = S. pneumoniae R6 ΔvanZ, broth microdilution, ISO 20776-1, twice in triplicate
[10] = S. aureus RN4220 pRMC2 (no VanZ)

Row | Compound | MIC [1, 4] [mg/L] | MIC (S. aureus RN4220 pRMC2; [5]) [mg/L] | MIC [2, 4] [mg/L] | MIC ([3]; Streptococcus pneumoniae) [mg/L] | MIC (S. pneumoniae R6 ΔvanZ; Streptococcus pneumoniae) [mg/L] | MIC (S. aureus ATCC29213; [6]) [mg/L] | MIC (S. pneumoniae R6; [7]) [mg/L] | decrease of susceptibility of S. aureus by expression of vanZTei [1] | decrease of susceptibility of S. aureus by expression of vanZg [2] | MIC [2] [mg/L] | MIC [3, 8] [mg/L] | MIC (S. pneumoniae R6 ΔvanZ; [9]) [mg/L] | MIC (S. aureus ATCC29213; S. aureus ATCC 29213 (control)) [mg/L] | MIC (S. pneumoniae R6) [mg/L] | MIC [1] [mg/L] | MIC (S. aureus RN4220 pRMC2; [10]) [mg/L] | sensitivity of the ΔvanZ mutant compared with the wild-type strain (S. pneumoniae R6 ΔvanZ; MIC of S. pneumoniae R6 ΔvanZ versus R6)
1 | CNC(C)C1CCC(N)C(OC2C(N)CC(N)C(OC3OCC(C)(O)C(NC)C3O)C2O)O1 (centres unmarked) [GEN, gentamicin] | 1 (≈ 2.09 µM) | 1 (≈ 2.09 µM) | 1 (≈ 2.09 µM) | 0.25 (≈ 0.523 µM) | 0.25 (≈ 0.523 µM) | 1 (≈ 2.09 µM) | 0.25 (≈ 0.523 µM) | – | – | – | – | – | – | – | – | – | –
2 | oritavancin | – | – | – | – | – | – | – | less or no activity | two times | 0.25 | 0.0078 | 0.0039 | 0.125 | 0.0078 | – | – | –
3 | dalbavancin | – | – | – | – | – | – | – | less or no activity | four-fold | 0.5 | – | 0.0078 | 0.125 | 0.03125 | – | – | –
4 | vancomycin | – | – | – | – | – | – | – | – | – | 1 | 0.25 | 0.25 | 0.25 | 0.25 | 0.5 | 0.5 | not
5 | CC1(C)S[C@@H]2[C@H](NC(=O)C(C(=O)O)c3ccccc3)C(=O)N2[C@H]1C(=O)O (some centres unmarked) [CARB, carbenicillin] | 0.25 (≈ 0.661 µM) | 0.25 (≈ 0.661 µM) | 0.25 (≈ 0.661 µM) | 0.0625 (≈ 0.165 µM) | 0.0625 (≈ 0.165 µM) | 0.25 (≈ 0.661 µM) | 0.0625 (≈ 0.165 µM) | – | – | – | – | – | – | – | – | – | –
6 | teicoplanin | – | – | – | – | – | – | – | less or no activity | 16 fold | 8 | – | 0.03125 | 0.125 | 0.125 | 1 | 0.5 | –
7 | CC[C@H]1OC(=O)[C@H](C)[C@@H](O[C@H]2C[C@@](C)(OC)[C@@H](O)[C@H](C)O2)[C@H](C)[C@@H](O[C@@H]2O[C@H](C)C[C@H](N(C)C)[C@H]2O)[C@](C)(O)C[C@@H](C)C(=O)[C@H](C)[C@@H](O)[C@]1(C)O [ERY, erythromycin] | 0.125 (≈ 0.17 µM) | 0.125 (≈ 0.17 µM) | 0.125 (≈ 0.17 µM) | 0.125 (≈ 0.17 µM) | 0.125 (≈ 0.17 µM) | 0.125 (≈ 0.17 µM) | 0.125 (≈ 0.17 µM) | – | – | – | – | – | – | – | – | – | –

Source: paper PMC7146870, “VanZ Reduces the Binding of Lipoglycopeptide Antibiotics to Staphylococcus aureus and Streptococcus pneumoniae Cells” (Frontiers in Microbiology, 2020)
